{
  "source": "paper PMC11859031",
  "about": "“Assessment of the In Vitro Biological Activities of Schiff Base-Synthesized Copper Oxide Nanoparticles as an Anti-Diabetic, Anti-Alzheimer, and Anti-Cancer Agent” (Pharmaceutics, 2025)",
  "key": {"[1]": {"test_system": "normal human fibroblast (BJ-1) cell line", "test": "MTT cytotoxicity, BJ-1", "details": "Homo sapiens, Fibroblast, 48 h, read-out: Median Inhibitory Concentration (IC50) BJ-1"}, "MTT cytotoxicity, BJ-1": {"test": "MTT cytotoxicity, BJ-1", "details": "human, BJ-1 normal fibroblast cells"}, "COX-2": {"target": "T1, COX-2 (Homo sapiens, UniProt P35354)", "T1 construct": "purchased Cayman 560131", "T1 sequence (P35354 18-604)": "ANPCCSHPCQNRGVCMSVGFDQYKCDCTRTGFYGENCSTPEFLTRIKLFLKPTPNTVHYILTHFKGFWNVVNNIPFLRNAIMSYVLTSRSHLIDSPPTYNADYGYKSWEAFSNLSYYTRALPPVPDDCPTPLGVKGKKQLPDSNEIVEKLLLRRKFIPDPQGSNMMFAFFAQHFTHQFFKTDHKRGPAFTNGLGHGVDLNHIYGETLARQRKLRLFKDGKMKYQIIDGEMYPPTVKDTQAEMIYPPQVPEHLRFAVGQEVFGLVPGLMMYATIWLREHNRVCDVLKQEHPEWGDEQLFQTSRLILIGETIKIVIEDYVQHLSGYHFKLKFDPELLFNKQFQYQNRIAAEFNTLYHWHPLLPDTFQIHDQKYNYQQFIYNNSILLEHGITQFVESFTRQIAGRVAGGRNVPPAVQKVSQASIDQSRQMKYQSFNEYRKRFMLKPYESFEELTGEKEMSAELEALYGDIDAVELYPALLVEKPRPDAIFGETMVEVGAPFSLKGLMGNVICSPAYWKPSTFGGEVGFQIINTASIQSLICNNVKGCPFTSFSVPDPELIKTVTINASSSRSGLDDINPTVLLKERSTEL", "test": "COX-2 inhibition assay (Cayman kit)", "type": "biochemical", "details": "mean ± SE, n = 3"}, "NO radical scavenging": {"test": "NO radical scavenging", "details": "mean ± SE, n = 3", "experimental": "The in vitro biological applications of the SB and SB-CuO-NPs, including antioxidant, scavenging, anti-diabetic, anti-Alzheimer, anti-arthritic, anti-inflammatory, cytotoxic effects, and enzyme inhibition, were assessed using methods described in the literature (See Supplementary Materials).\nDuring the current study, the free radical scavenging capacity of SB-CuO-NPs, SB, and ascorbic acid (positive control) was evaluated using the DPPH, ABTS, and NO radical methods. The scavenging activity is used to predict antioxidant efficacy, a mechanism in which antioxidants inhibit lipid oxidation. The lower IC50 value indicates a stronger ability of the SB-CuO-NPs to act as radical scavengers, whereas the higher IC50 value indicates a lower scavenging activity. […] The lower the IC50 value, the greater the antioxidant activity."}, "[2]": {"target": "bovine serum albumin (BSA) (Bos taurus, UniProt P02769)", "sequence (P02769 25-607)": "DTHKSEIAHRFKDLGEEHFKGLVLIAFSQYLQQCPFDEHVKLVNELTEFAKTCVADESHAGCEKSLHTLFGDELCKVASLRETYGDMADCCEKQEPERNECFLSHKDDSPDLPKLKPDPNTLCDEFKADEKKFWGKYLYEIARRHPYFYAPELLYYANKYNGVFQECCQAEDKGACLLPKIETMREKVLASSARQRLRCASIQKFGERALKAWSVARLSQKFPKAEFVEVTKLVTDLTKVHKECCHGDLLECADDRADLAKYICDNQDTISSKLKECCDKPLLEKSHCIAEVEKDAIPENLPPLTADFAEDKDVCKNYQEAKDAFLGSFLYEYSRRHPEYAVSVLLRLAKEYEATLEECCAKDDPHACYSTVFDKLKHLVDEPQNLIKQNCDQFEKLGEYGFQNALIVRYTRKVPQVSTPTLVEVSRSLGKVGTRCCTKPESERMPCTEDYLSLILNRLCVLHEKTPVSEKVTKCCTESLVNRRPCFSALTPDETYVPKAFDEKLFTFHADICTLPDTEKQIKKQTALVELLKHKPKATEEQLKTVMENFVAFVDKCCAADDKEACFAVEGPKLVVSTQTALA", "test": "Inhibition of protein denaturation (anti-arthritic)", "details": "read-out: Protein Denaturation Inhib. (%)", "experimental": "3.5. Anti-arthritic activity\nIn the anti-arthritic activity study, this assay involved determining the percentage of […]\nanti-inflammatory drug, as prepared according to Meera et al. The protein denaturation percentage was measured by mixing 0.5mL of the test control solution, prepared by combining 0.45 mL of bovine serum albumin (BSA) (5% w/v aqueous solution) with 0.05 mL of distilled water. Then, 0.05 mL of the test solution was added to 0.45 mL of distilled water to form the product control (0.5 mL). The […]\npH value in all prepared solutions was adjusted to 6.3 using HCl (1N). All the samples were incubated at 37 °C for 20 min, and the temperature was then increased to 57 °C, maintaining the samples at that degree for 3 min. After cooling, 2.5 mL of phosphate buffer was added to the prepared solutions. The absorbance was […]\nprotein denaturation inhibition can be calculated. Proteinase inhibitory activity was assessed by combining the test sample (1 mL) with a reaction mixture containing 0.06 mg trypsin dissolved in 1 mL of 20 mM Tris HCl buffer (pH 7.4). The mixture was then incubated for 5 minutes at 37°C, followed by the addition of 1 mL of casein (0.8% w/v). […] The cloudy suspension was then centrifuged, and the absorbance of the supernatant was measured at 210 nm against buffer as the blank. The percentage of proteinase inhibitory activity was then calculated. […]"}, "caspase-3 in A549 cells": {"test_system": "caspase-3 in A549 cells", "test": "Caspase-3 ELISA in treated A549 cells", "type": "cell-based, human", "details": "A549 cells treated at the IC50 value, mean ± SE, n = 3", "experimental": "(§1) Following the treatment of HepG-2, Caco-2, A549, and BJ-1 cells with the SB-CuO-NPs at their respective IC50 values, as illustrated in Figure 9 and detailed in Table 5, an assessment of the activities of the caspase-3 and Bcl-2 enzymes was conducted in the treated cells. […] This mechanism ultimately triggers apoptosis. Additionally, the increased activity of caspase-3 results in a decrease in the expression of cyclin D1 and CDK-2 mRNA, thereby promoting the arrest of the G1 phase of the cell cycle. Othman et al. further noted that the biosynthesized M-NPs facilitate apoptosis by inhibiting the expression of the PI3K/AKT and Ras/Raf/ERK protein signaling pathways.\n(§2) Invitrogen Corporation, following the manufacturer's instructions."}, "Bcl-2 in A549 cells": {"test_system": "Bcl-2 in A549 cells", "test": "Bcl-2 ELISA in treated A549 cells", "type": "cell-based, human", "details": "A549 cells treated at the IC50 value, mean ± SE, n = 3", "experimental": "as §1, §2"}, "ABTS radical scavenging": {"test": "ABTS radical scavenging", "details": "mean ± SE, n = 3", "experimental": "The procedure for the 2,2'-azinobis-(3-ethylbenzothiazoline-6-sulfonic acid) (ABTS) […]\nsolution (7 mM) and potassium persulfate solution (2.4 mM). The working solution was prepared by mixing the two stock solutions in equal quantities and allowing them to react at room temperature in a dark place for 14 hours. The solution was then diluted by mixing 1 mL of ABTS solution with 60 mL of methanol to obtain an absorbance of 0.706 ± 0.01 units at 734 nm using a spectrophotometer. Fresh ABTS solution was prepared for each assay. The tested samples (at each concentration) were allowed to react with 1 mL of the ABTS solution, and the absorbance was taken at 734 nm after 7 minutes using a spectrophotometer. […]"}, "[3]": {"test_system": "caspase-3 in HepG-2 cells", "test": "Caspase-3 ELISA in treated HepG-2 cells", "type": "cell-based, human", "details": "HepG-2 cells treated at the IC50 value, mean ± SE, n = 3", "experimental": "as §1, §2"}, "Bcl-2 in Caco-2 cells": {"test_system": "Bcl-2 in Caco-2 cells", "test": "Bcl-2 ELISA in treated Caco-2 cells", "type": "cell-based, human", "details": "Caco-2 cells treated at the IC50 value, mean ± SE, n = 3", "experimental": "as §1, §2"}},
  "data": [
    {"smiles": "Cc1nn(-c2ccccc2)c(Cl)c1C=NN=C1C(=O)Nc2ccccc21", "note": "[SB]", "values": [
      {"measurement": "IC50", "setting": "[1]", "result": "168 ± 2.22", "unit": "µg/mL"},
      {"measurement": "viability at 48 h, 31.13 μg/mL", "setting": "MTT cytotoxicity, BJ-1", "result": 90.9, "unit": "%"},
      {"measurement": "viability at 48 h, 62.5 μg/mL", "setting": "MTT cytotoxicity, BJ-1", "result": 80.9, "unit": "%"},
      {"measurement": "viability at 48 h, 125 μg/mL", "setting": "MTT cytotoxicity, BJ-1", "result": 62.7, "unit": "%"},
      {"measurement": "viability at 48 h, 250 μg/mL", "setting": "MTT cytotoxicity, BJ-1", "result": 47.2, "unit": "%"},
      {"measurement": "viability at 48 h, 500 μg/mL", "setting": "MTT cytotoxicity, BJ-1", "result": 19.1, "unit": "%"},
      {"measurement": "inhibition at 100 µg/mL", "setting": "COX-2; at 100 µg/mL, read-out: COX-2 Inhib. (%)", "result": "33.86 ± 0.18", "unit": "%"},
      {"measurement": "IC50", "setting": "COX-2", "result": 19.7, "unit": "µM"},
      {"measurement": "Scavenging activity NO Inhib. (%)", "setting": "NO radical scavenging; at 100 µg/mL", "result": "36.79 ± 0.18", "unit": "%"},
      {"measurement": "Scavenging activity NO IC50", "setting": "NO radical scavenging", "result": "7.69 ± 0.04", "unit": "µg/mL"},
      {"measurement": "inhibition at 100 µg/mL", "setting": "[2]", "result": "26.11 ± 0.13", "unit": "%"},
      {"measurement": "Caspase-3", "setting": "caspase-3 in A549 cells", "result": "134.94 ± 0.18", "unit": "pg/mL"},
      {"measurement": "Bcl-2", "setting": "Bcl-2 in A549 cells", "result": "8.26 ± 0.03", "unit": "ng/mL"},
      {"measurement": "Scavenging activity ABTS Inhib. (%)", "setting": "ABTS radical scavenging; at 100 µg/mL", "result": "48.29 ± 0.18", "unit": "%"},
      {"measurement": "Scavenging activity ABTS IC50", "setting": "ABTS radical scavenging", "result": "5.40 ± 0.06", "unit": "µg/mL"},
      {"measurement": "Caspase-3", "setting": "[3]", "result": "165.55 ± 1.29", "unit": "pg/mL"},
      {"measurement": "Bcl-2", "setting": "Bcl-2 in Caco-2 cells", "result": "3.77 ± 0.05", "unit": "ng/mL"}
    ]}
  ]
}
